Data: PubChem BioAssay AID2384 (Southern Research Specialized Biocontainment Screening …, 2010)
Several values for one entry are separate records, joined by “and”; a condition that tells them apart may be missing. Equal entries are not always repeated.

The compounds below were run on S. typhi GFP reporter counter-screen, fluorescence, 4 h (assay: S. typhi counter-screen signal inhibition – fluorescence, 4 h, counter-screen for PhoP regulon inhibitor project, dose response (AID 2384)).

| SMILES | IC50 |
| --- | --- |
| COc1ccc(NC(=O)c2[nH]ncc2[N+](=O)[O-])cc1 | 133 µM |
| CCn1cc(C(=O)O)c(=O)c2cc(F)c(N3CCN(C(=S)NC(=O)c4ccc(Br)cc4)CC3)cc21 | 56 µM |
| COc1ccc(/C=C/c2cc[n+](C(=O)Cc3ccccc3)cc2)cc1 | 65.3 µM |
| O=C(O)c1sccc1Oc1ccc(F)cc1[N+](=O)[O-] | 13.1 µM |
| CN1CCC(OC(=O)c2cccc(Br)c2)CC1 | 55.9 µM |
| O=C(/C=C/c1cccs1)NC(=S)NNC(=O)c1ccccc1O | 26.1 µM |
| O=Nc1ccc(O)c2ncccc12 | 20 µM |
| O=C(Nc1cccc(Br)c1)c1cc2ccccc2o1 | 83.3 µM |
| CN(C)CCCN(C(=O)COc1ccccc1)c1nc2ccc(Cl)cc2s1 | 40.5 µM |
| O=C(O)c1ccc(N2C(=O)CSC2=S)cc1 | 137 µM |
| C/C(=C\C(=O)OCCCCCCCCC(=O)O)C[C@@H]1OC[C@H](C[C@@H]2O[C@H]2[C@@H](C)[C@H](C)O)[C@@H](O)[C@H]1O | 38.4 µM |
| CN(C)CCCNC(=O)c1ccc(-c2nc(-c3ccc(Cl)cc3)cs2)cc1 | 19.7 µM |
| Cc1ccc(NC(=O)CN(C)C2CCCCC2)cc1Br | 41.6 µM |
| NC1=NC[C@H](Cc2ccc(O)cc2)N1CCCCC1CCCCC1 | 13.9 µM |
| NC(=NCCCCCCN=C(N)/N=C(\N)Nc1ccc(Cl)cc1)/N=C(\N)Nc1ccc(Cl)cc1 | 5.2 µM and 5.4 µM and 5.13 µM |
| N#C/C(N=Nc1ccccc1O)=N\Nc1ccccc1O | 20.2 µM |
| N=c1c2c(-c3ccccc3)c(-c3ccccc3)n(Cc3ccco3)c2ncn1CCCn1ccnc1 | 39.4 µM |
| CCCCn1c(NS(=O)(=O)c2ccccc2)c(C(=O)OCC)c2nc3ccccc3nc21 | 58.9 µM |
| Oc1c(C(Nc2ccccn2)c2cccnc2)cc(Cl)c2cccnc12 (centres undefined) | 25.5 µM |
| O=C(C[n+]1cc(-c2ccc(Cl)c(Cl)c2)n2c1CCC2)N1c2ccccc2Sc2ccccc21 | 19.4 µM |
| Cc1cc2oc(=O)cc(CN3CCN(C/C=C/c4ccccc4)CC3)c2cc1O | 92.9 µM |

| SMILES | IC50 |
| --- | --- |
| COc1cc(CNCCc2c[nH]c3ccccc23)ccc1OCc1ccc(F)cc1 | 37.6 µM |
| O=c1[nH]c2ccccc2n2c(=S)[nH]nc12 | 147 µM |
| O=C(Nc1nnc(-c2cccs2)o1)c1cccc(C(F)(F)F)c1 | 26.4 µM |
| Oc1ccc(C[C@@H]2CNCCN2CCCCC2CCCCC2)cc1 | 37.5 µM |
| CC(NCc1ccc(Cl)cc1)C(O)c1ccccc1 (centres undefined) | 42.8 µM |
| CC12CN3CC(C)(CN(C1)C3c1ccc(Br)cc1O)C2 (centres undefined) | 143 µM |
| Cc1ccc2sc(N(CCCN(C)C)C(=O)c3ccc(Br)s3)nc2c1C | 36.6 µM |
| CCOc1cc(Br)cc(/C=N/NC(=O)c2cccnc2)c1O | 126 µM |
| CCCOc1ccc(C(=O)NNC(=S)NC(=O)c2ccco2)cc1 | 36.8 µM |
| Brc1ccc2c(c1)C(OC1CN3CCC1CC3)c1ccccc1CS2 (centres undefined) | 31.8 µM |
| NCCCCCc1nnc(SCc2ccc(Cl)cc2Cl)o1 | 98.3 µM |
| O=C(CCNC(=O)c1ccco1)Nc1ccc(SC(F)F)cc1 | 93.7 µM |
| CCc1ccc2c(c1)Sc1ccccc1CC2N1CCN(C)CC1 (centres undefined) | 31.3 µM |
| COc1ccc(Nc2cc(C)c3c(O)cccc3n2)cc1 | 24.9 µM |
| C[C@H]1COc2c(C3(N)CC3)c(F)cc3c(=O)c(C(=O)O)cn1c23 | 0.9 µM |
| CN1CCN(Cc2cc(COCc3ccccc3)c3cccnc3c2O)CC1 | 36.8 µM |
| CCN1CCCC1CNC(=O)c1cc2cc(F)ccc2[nH]1 (centres undefined) | 19 µM |
| CSc1ccccc1NC(=O)CN1CCCCC1C (centres undefined) | 131 µM |
| COc1ccccc1Nc1c2ccccc2nc2ccccc12 | 99.9 µM |
| C[C@H]1COc2c(N3CCN(C)CC3)c(F)cc3c(=O)c(C(=O)O)cn1c23 | 0.69 µM |
| CN1CCN(C(=O)CSc2ccc(Cl)cc2)CC1 | 113 µM |

| SMILES | IC50 |
| --- | --- |
| Cc1ccc2c(c1)N/C(=C(\C=C(/Cl)[N+](=O)[O-])[N+](=O)[O-])N2 | 131 µM |
| Cc1cccc(C(=O)NNC(=S)NC(=O)c2cccs2)c1 | 66.3 µM |
| O=C(C[n+]1ccc(-c2ccccc2)cc1)Nc1ccc([N+](=O)[O-])cc1 | 26.3 µM |
| CC(C)C1N=C(c2ccc3c(c2)OCO3)CC(c2ccccc2O)N1 (centres undefined) | 117 µM |
| O=C(N/N=C/c1cccs1)c1ccc2nc[nH]c2c1 | 125 µM |
| COc1ccc(/C=C/c2cc(-c3ccc(C)cc3)o[n+]2C)cc1 | 42.7 µM |
| O=C(O)/C(=C\C(=O)c1ccccc1)Nc1ccccc1 | 103 µM |
| CNC[C@H](Cc1ccccc1)NC[C@@H](Cc1cccc2ccccc12)NCCc1ccc(C)cc1 | 14.8 µM |
| COc1ccc(C(=O)NC(=S)NNC(=O)c2cnccn2)cc1 | 47.1 µM |
| Cc1ccc(Nc2cc(C)c3c(O)cccc3n2)cc1C | 11.7 µM |
| CN(C)CCNC(=O)/C(=C/c1ccc(-c2ccc(Cl)cc2)o1)NC(=O)c1ccccc1 | 63.1 µM |
| O=C(CN1CC[n+]2c(-c3cccs3)csc21)c1ccc(-c2ccccc2)cc1 | 20.3 µM |
| O=C(Cc1ccc([N+](=O)[O-])cc1)N/N=C/c1ccc([N+](=O)[O-])o1 | 20.9 µM |
| O=[N+]([O-])c1ccc(O)c(/C=N/Nc2ccccn2)c1 | 9.31 µM |
| Cn1c(-c2ccc3c(c2)OCO3)cnc1NCc1ccc(Cl)cc1 | 76.3 µM |
| CCCCCN=C(N)N/N=C/c1c[nH]c2ccc(OC)cc12 | 26.9 µM |
| O=C(/C=C/c1ccccc1)c1cc(Br)ccc(=O)c1O | 21.8 µM |
| Cc1ccccc1C(=O)N/N=C/c1ccc([N+](=O)[O-])s1 | 75.3 µM |
| CC1CCC(C(C)C)C(OC(=O)Cn2c(-c3ccc(Cl)cc3)[n+](C)c3ccccc32)C1 (centres undefined) | 38.3 µM |
| COc1ccc(/C=N/Nc2cc(C)nc3c(C)cccc23)cc1 | 40.7 µM |
| C1=C(CCNCc2ccccc2)CCCC1 | 16.8 µM |

| SMILES | IC50 |
| --- | --- |
| Cc1cc(NC(=O)c2ccccc2)sc1C | 79.8 µM |
| CCn1cc(C(=O)O)c(=O)c2cc(F)c(N3CCN(C(=S)Nc4ccc(OC)cc4)CC3)cc21 | 35.9 µM |
| Clc1c(OCCCn2ccnc2)ccc2ccccc12 | 76.6 µM |
| O=C(N/N=C/c1ccc([N+](=O)[O-])s1)C(O)c1ccccc1 (centres undefined) | 32.1 µM |
| OC(CNCCc1ccc(Cl)cc1Cl)COc1ccccc1 (centres undefined) | 37.3 µM |
| CC(C(=O)NC1C=CS(=O)(=O)C1)N1C(=O)/C(=C/c2ccc(Cl)cc2)SC1=S (centres undefined) | 30.3 µM |
| c1ccc2cc3c(NCCN4CCOCC4)ccnc3cc2c1 | 88.2 µM |
| Fc1ccc(CCNCc2ccc(Cl)c(Cl)c2)cc1 | 36.6 µM |
| CN1CCN(C2Cc3ccc(Cl)cc3Sc3ccc(F)cc32)CC1 (centres undefined) | 19.9 µM |
| CCn1cc(C(=O)O)c(=O)c2cc(F)c(N3CCN(C(=S)Nc4ccccc4OC)CC3)cc21 | 41.1 µM |
| Cc1ccc(NNS(=O)(=O)c2ccc(C)cc2)cc1 | 111 µM |
| O=C(CC1NCCc2ccccc21)Nc1ccc(Oc2ccccc2)cc1 (centres undefined) | 51 µM |
| O=C(CCN1CCN(c2ccccc2)CC1)c1ccc(Br)cc1 | 70.1 µM |
| COc1c(N2CCN(C(=S)NC3CC4CCC3C4)C(C)C2)c(F)cc2c(=O)c(C(=O)O)cn(C3CC3)c12 (centres undefined) | 44.1 µM |
| O=C(CCN1CCN(c2ccccc2)CC1)c1ccc(Cl)cc1 | 70.3 µM |
| CC1CCc2c(N3CCC(O)CC3)c(F)cc3c(=O)c(C(=O)O)cn1c23 (centres undefined) | 18.9 µM |
| Cc1cc([N+](=O)[O-])cc(/C=N/n2c(C)nc3ccccc3c2=O)c1O | 78.1 µM |
| CCN(CC(=O)NC(C)(C)C)C(=O)COc1c(Cl)cc(Cl)c2ccc(C)nc12 | 19 µM |
| COc1ccc(C(=O)NC(=S)NNC(=O)c2cccc(C)c2)cc1 | 48.8 µM |
| O=C(N/N=C/c1cc(Cl)cc(Cl)c1O)c1ccncc1 | 33.7 µM |
| Nc1ncn(C2O[C@H](CO)[C@@H](O)[C@H]2O)c(=O)n1 (some centres undefined) | 35.2 µM |
